Test results from ChEMBL document CHEMBL1201862, “PubChem BioAssay data set” (2004).
Each block holds one compound with its values, some of them ahead of it. Calls of active or inactive are those of the source.

Key:
Format in all cases: functional
[1] = target: T1, High affinity choline transporter 1 (Homo sapiens, UniProt Q9GZV3); assay: human choline transporter blockers, potency – cell-based, 5-point CRC, membrane potential dye, dose response (AID 504840)
T1 sequence (Q9GZV3 whole entry): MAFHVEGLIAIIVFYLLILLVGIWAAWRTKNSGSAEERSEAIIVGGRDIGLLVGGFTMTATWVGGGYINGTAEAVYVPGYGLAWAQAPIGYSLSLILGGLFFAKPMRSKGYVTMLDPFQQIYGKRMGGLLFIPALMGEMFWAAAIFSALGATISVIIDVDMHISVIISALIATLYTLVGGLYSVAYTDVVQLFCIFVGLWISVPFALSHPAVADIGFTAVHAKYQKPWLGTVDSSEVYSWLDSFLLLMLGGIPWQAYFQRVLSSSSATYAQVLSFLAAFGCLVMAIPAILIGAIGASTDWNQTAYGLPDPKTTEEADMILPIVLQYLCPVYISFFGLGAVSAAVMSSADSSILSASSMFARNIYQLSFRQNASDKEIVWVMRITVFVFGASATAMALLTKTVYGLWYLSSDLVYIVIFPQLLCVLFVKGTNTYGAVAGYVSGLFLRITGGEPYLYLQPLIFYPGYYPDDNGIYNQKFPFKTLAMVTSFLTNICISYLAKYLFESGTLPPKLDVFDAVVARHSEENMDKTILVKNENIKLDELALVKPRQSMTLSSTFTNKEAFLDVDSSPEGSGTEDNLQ

[2] = target: T1, High affinity choline transporter 1; assay: human choline transporter blockers, potency – cell-based, 10-point CRC, membrane potential dye, dose response (AID 588401);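 also: membrane potential dye fluorescence of choline-evoked depolarization via CHT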
[3] = target: Fibroblast growth factor receptor 1 (Homo sapiens, UniProt P11362)
Chain of Fibroblast growth factor receptor 1 (P11362 whole entry): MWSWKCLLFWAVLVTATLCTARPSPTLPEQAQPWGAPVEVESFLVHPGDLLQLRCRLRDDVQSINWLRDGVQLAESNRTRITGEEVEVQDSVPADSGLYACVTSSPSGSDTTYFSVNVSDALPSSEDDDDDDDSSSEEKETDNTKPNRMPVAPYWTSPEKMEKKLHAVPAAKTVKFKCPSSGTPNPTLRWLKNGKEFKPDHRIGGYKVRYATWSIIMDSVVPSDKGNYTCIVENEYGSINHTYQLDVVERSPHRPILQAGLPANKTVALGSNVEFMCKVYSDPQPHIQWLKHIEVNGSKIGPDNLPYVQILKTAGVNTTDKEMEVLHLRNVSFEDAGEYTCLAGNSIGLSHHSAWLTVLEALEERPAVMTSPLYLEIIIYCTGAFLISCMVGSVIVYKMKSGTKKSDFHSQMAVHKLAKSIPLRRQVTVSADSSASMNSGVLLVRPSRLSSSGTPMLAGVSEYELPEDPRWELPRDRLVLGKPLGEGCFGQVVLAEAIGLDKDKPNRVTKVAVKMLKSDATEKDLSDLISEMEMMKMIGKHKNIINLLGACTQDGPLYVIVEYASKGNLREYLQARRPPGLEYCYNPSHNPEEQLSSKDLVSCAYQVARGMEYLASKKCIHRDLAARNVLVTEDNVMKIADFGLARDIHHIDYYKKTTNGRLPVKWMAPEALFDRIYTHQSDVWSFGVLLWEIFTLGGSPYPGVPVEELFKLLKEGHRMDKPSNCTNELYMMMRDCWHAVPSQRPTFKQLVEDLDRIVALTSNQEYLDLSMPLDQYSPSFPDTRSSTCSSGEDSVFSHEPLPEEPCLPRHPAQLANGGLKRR

[4] = target: Receptor-type tyrosine-protein kinase FLT3 (Homo sapiens, UniProt P36888);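 also: FLT3 was tested as one member of a kinome-wide kinase panel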
Chain of Receptor-type tyrosine-protein kinase FLT3 (P36888 whole entry): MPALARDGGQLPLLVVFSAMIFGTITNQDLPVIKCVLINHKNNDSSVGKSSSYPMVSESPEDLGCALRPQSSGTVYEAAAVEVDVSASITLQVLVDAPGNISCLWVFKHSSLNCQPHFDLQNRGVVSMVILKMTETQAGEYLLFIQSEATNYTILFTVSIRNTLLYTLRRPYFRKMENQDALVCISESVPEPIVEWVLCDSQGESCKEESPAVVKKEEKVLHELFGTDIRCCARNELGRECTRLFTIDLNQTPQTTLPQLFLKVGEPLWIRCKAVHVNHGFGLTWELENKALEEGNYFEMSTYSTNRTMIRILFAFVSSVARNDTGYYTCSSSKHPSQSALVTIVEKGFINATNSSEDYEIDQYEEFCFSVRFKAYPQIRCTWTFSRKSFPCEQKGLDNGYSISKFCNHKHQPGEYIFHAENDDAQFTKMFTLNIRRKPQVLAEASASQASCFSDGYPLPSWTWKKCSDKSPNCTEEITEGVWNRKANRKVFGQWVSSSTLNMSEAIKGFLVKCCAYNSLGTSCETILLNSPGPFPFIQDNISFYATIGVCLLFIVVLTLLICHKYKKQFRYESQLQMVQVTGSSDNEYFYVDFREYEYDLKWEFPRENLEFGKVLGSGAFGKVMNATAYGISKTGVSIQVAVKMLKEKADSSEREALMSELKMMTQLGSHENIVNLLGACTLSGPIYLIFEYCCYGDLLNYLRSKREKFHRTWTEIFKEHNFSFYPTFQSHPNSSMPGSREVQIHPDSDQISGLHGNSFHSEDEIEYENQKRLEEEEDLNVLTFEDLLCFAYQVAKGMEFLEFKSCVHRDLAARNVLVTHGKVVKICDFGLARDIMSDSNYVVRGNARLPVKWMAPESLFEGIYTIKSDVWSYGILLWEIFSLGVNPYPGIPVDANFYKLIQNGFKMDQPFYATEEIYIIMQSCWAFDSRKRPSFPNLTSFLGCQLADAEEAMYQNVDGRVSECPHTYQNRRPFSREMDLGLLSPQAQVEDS

[5] = target: Dual specificity protein kinase CLK4 (Homo sapiens, UniProt Q9HAZ1)
CHO-K1 = assay: (§1) Counterscreen for antagonists of the orexin 1 receptor (OX1R; HCRTR1): Homogeneous time resolved fluorescence (HTRF)-based cell-based dose response assay to identify antagonists of the parental CHO-K1 cell line. [Related pubchem assays (depositor defined):AID434989, AID435008, AID463079, AID485270, AID492963, AID492964, AID492965, AID493232, AID504699, AID504701]; details: Cricetulus griseus
[6] = as §1, with “Fluorescence-based” for “Homogeneous time resolved fluorescence (HTRF)-based”, “cell-based high throughput” for “cell-based”, “CHO” for “CHO-K1”
[7] = target: T2, Orexin/Hypocretin receptor type 1 (Homo sapiens, UniProt O43613); assay: Homogeneous Time Resolved Fluorescence (HTRF)-based cell-based high throughput dose response assay for antagonists of the orexin 1 receptor (OX1R; HCRTR1). [Related pubchem assays (depositor defined):AID434989, AID435008, AID463079, AID485270, AID492963, AID492964, AID492965, AID493232, AID504717, AID504718]
T2 sequence (O43613 whole entry): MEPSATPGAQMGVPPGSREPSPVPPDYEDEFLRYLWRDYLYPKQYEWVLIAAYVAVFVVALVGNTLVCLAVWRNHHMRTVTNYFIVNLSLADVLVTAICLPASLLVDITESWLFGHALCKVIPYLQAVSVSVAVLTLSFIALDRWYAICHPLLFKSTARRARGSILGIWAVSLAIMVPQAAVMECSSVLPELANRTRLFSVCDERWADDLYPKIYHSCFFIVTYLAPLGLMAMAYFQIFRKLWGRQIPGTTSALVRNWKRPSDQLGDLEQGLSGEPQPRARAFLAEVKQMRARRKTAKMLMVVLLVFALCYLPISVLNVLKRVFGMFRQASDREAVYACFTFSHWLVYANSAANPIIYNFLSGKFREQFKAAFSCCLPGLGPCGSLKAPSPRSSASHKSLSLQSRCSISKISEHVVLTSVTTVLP

[8] = target: T2, Orexin/Hypocretin receptor type 1; assay: Fluorescence-based cell-based high throughput dose response assay for antagonists of the orexin 1 receptor (OX1R; HCRTR1). [Related pubchem assays (depositor defined):AID434989, AID435008, AID463079, AID485270, AID492963, AID492964, AID492965, AID493232, AID504717, AID504718]
Orexin receptor type 2 [9] = target: T3, Orexin receptor type 2 (Homo sapiens, UniProt O43614); assay: Counterscreen assay for antagonists of the orexin 1 receptor (OX1R; HCRTR1): Fluorescence-based cell-based dose response assay for antagonists of the orexin 2 receptor (OX2R; HCRTR2), run by assay provider.
T3 sequence (O43614 whole entry): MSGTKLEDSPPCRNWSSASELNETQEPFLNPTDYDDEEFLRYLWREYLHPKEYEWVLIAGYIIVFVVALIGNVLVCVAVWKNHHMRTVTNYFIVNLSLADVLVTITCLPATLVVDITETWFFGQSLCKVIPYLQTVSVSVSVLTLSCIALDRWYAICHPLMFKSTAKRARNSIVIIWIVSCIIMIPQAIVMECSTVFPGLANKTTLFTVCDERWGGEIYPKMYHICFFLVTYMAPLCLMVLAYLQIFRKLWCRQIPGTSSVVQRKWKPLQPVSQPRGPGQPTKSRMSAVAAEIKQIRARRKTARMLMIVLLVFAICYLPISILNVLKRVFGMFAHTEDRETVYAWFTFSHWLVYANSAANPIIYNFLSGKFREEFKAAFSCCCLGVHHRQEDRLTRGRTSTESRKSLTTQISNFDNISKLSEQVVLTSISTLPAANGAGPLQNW

Orexin receptor type 2 [10] = target: T3, Orexin receptor type 2; assay: Counterscreen assay for antagonists of the orexin 1 receptor (OX1R; HCRTR1): Homogeneous Time Resolved Fluorescence (HTRF)-based cell-based dose response assay for antagonists of the orexin 2 receptor (OX2R; HCRTR2), run by assay provider.
[11] = target: Cyclin-dependent kinase 8 (Homo sapiens, UniProt P49336); assay: Navigating the Kinome. Panel member name: CDK8
[12] = target: Leucine-rich repeat serine/threonine-protein kinase 2 (Homo sapiens, UniProt Q5S007);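 also: value from a broad kinome-wide panel profiling study in which LRRK2 was one of the kinases tested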
[13] = target: Vascular endothelial growth factor receptor 1 (Homo sapiens, UniProt P17948);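 also: measured within a kinome-wide profiling panel, FLT1 as the panel member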
[14] = target: Serine/threonine-protein kinase PLK3 (Homo sapiens, UniProt Q9H4B4)
Chain of Serine/threonine-protein kinase PLK3 (Q9H4B4 whole entry): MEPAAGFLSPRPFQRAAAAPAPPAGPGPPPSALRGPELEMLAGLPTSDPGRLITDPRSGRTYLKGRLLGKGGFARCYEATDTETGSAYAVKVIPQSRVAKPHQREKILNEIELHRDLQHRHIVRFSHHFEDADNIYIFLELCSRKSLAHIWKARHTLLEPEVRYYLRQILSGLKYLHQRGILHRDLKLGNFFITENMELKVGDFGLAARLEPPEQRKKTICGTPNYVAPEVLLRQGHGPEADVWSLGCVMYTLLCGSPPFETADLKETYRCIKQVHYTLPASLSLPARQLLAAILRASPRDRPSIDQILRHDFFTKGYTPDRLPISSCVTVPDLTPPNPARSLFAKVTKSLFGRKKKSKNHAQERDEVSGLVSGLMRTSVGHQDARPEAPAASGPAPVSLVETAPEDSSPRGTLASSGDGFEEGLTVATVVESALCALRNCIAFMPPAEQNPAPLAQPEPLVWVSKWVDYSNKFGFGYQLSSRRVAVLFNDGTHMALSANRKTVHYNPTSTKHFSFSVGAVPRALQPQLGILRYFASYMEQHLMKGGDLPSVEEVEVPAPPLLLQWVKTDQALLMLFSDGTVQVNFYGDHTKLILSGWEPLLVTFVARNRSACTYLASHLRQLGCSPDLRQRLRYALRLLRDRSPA

[15] = target: RAC-gamma serine/threonine-protein kinase (Homo sapiens, UniProt Q9Y243)
[16] = target: Serine/threonine-protein kinase PLK4 (Homo sapiens, UniProt O00444);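 also: PLK4 measured as one member of a kinome-wide kinase profiling panel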
[17] = target: Serine/threonine-protein kinase pim-1 (Homo sapiens, UniProt P11309)
Chain of Serine/threonine-protein kinase pim-1 (P11309 whole entry): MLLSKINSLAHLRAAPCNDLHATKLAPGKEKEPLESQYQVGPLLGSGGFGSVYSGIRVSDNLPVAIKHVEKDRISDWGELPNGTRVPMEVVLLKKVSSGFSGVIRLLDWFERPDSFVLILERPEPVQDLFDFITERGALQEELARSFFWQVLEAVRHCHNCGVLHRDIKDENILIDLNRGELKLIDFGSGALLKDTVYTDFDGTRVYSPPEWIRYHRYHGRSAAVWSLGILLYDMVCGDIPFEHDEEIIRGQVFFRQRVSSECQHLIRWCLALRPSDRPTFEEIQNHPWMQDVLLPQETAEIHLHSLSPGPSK

Insulin receptor = Insulin receptor (Homo sapiens, UniProt P06213);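 also: insulin receptor kinase tested as one member of a kinome-wide kinase panel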
Chain of Insulin receptor (P06213 28-758 limits assumed): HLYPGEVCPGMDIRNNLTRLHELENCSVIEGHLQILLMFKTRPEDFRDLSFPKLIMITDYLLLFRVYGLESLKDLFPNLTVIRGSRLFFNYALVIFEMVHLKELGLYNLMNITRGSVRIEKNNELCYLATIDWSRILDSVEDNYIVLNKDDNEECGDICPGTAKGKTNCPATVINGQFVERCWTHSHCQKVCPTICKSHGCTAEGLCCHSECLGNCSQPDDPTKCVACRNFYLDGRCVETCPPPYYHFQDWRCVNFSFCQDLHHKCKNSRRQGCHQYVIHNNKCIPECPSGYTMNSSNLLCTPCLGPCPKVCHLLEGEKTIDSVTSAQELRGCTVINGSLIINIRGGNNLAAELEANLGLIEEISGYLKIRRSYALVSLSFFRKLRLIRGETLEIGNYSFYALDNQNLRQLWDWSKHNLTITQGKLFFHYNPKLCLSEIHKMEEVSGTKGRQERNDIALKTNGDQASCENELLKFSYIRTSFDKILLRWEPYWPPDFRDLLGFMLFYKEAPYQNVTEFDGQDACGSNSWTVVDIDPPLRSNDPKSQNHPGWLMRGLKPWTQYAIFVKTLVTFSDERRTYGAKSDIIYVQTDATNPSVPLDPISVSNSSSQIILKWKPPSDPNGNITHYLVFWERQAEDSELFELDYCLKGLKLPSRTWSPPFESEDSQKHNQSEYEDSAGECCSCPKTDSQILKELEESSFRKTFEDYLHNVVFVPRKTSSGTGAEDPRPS
Chain of Insulin receptor (P06213 763-1382 limits assumed): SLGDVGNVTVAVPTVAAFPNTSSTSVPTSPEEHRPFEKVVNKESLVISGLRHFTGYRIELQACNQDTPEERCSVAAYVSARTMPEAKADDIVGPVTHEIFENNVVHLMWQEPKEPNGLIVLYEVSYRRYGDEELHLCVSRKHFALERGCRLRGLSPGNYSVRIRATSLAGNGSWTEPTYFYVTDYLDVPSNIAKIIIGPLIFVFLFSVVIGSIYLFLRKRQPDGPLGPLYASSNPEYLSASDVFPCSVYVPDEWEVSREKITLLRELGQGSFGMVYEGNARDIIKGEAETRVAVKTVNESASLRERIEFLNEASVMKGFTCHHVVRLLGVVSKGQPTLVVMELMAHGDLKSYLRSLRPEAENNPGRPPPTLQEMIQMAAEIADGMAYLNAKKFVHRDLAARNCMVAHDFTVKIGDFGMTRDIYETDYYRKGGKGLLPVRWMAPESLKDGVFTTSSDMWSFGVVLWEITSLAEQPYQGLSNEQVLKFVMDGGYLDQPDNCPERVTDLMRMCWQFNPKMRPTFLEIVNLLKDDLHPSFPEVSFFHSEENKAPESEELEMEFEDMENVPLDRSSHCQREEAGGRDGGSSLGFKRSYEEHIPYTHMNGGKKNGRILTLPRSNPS

[18] = target: Serine/threonine-protein kinase pim-3 (Homo sapiens, UniProt Q86V86);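 also: value obtained as one member of a broad kinase panel profiling effort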
[19] = target: Hepatocyte growth factor receptor (Homo sapiens, UniProt P08581);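 also: kinase panel profiling across the kinome, with MET as the panel member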
[20] = target: Serine/threonine-protein kinase Chk1 (Homo sapiens, UniProt O14757);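 also: measured as one member of a kinome-wide kinase profiling panel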
[21] = target: Vascular endothelial growth factor receptor 2 (Homo sapiens, UniProt P35968)
[22] = target: RAC-alpha serine/threonine-protein kinase (Homo sapiens, UniProt P31749);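 also: AKT1 affinity measured as one member of a kinome-wide kinase profiling panel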
[23] = target: Serine/threonine-protein kinase PLK1 (Homo sapiens, UniProt P53350);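 also: PLK1 measured as one member of a kinome-wide profiling panel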
[24] = target: ALK tyrosine kinase receptor (Homo sapiens, UniProt Q9UM73);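 also: ALK tested as one member of a kinase panel screen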
[25] = target: Cyclin-dependent kinase 19 (Homo sapiens, UniProt Q9BWU1); assay: Navigating the Kinome. Panel member name: CDC2L6
[26] = target: Mitogen-activated protein kinase 13 (Homo sapiens, UniProt O15264)
Chain of Mitogen-activated protein kinase 13 (O15264 whole entry): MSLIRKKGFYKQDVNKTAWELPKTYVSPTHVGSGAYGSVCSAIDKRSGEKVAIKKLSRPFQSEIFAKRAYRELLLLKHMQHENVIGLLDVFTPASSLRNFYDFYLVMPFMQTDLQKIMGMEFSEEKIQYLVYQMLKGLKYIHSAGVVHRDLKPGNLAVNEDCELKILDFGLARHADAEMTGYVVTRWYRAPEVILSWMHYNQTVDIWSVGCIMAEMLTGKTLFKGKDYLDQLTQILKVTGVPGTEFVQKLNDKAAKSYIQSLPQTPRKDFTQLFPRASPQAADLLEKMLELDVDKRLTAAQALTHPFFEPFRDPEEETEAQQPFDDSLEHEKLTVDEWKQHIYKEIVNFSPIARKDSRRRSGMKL

[27] = target: High affinity nerve growth factor receptor (Homo sapiens, UniProt P04629);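 also: NTRK1 tested as one member of a kinome-wide profiling panel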
[28] = target: BDNF/NT-3 growth factors receptor (Homo sapiens, UniProt Q16620);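 also: NTRK2 measured as one member of a broad kinome-wide kinase profiling panel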

Ki [11]: 3.16 µM (active)
SMILES: O=C(O)C1CN(Cc2ccc(CCc3cccc(C(F)(F)F)c3)cc2)C1

Ki [12]: 1 µM (active)
Ki [13]: 3.16 µM (active)
SMILES: COc1ccc(CNC(=O)c2sc3nc(C)cc(C)c3c2N)cc1

Ki [27]: 1.58 µM (active)
Ki [28]: 158 nM (active)
SMILES: COc1ccc(COc2ccc(Cc3cnc(N)nc3N)cc2OC)cc1 [GW632580X]

Continued, compound first:

SMILES: Cc1ccc(C)[n+](CC(=O)c2ccc(-c3ccccc3)cc2)c1
IC50 [1]: 10.3 µM (active)
IC50 [2]: 10.8 µM (active)

SMILES: CC(C)(C)c1ccc2nc(-c3n[nH]c4ccc(Br)cc34)[nH]c2c1
Ki [3]: 3.16 µM (active)
Ki [4]: 2.51 µM (active)
Ki [5]: 1.26 µM (active)

SMILES: Sc1nnc(-c2cc(-c3ccccc3)[nH]n2)n1/N=C/c1cccs1
IC50 (CHO-K1): > 66.2 µM (inactive)
IC50 [6]: > 49.7 µM (inactive)
IC50 [7]: 8.08 µM (active)
IC50 [8]: > 49.7 µM (inactive)
IC50 (Orexin receptor type 2 [9]): > 88.8 µM (inactive)
IC50 (Orexin receptor type 2 [10]): > 50 µM (inactive)

SMILES: Nc1n[nH]c2c(Cl)cccc12
Ki [14]: 10 µM (active)
Ki [15]: > 100 µM (inactive)
Ki [16]: > 39.8 µM (inactive)
Ki [17]: > 100 µM (inactive)
Ki [3]: > 50.1 µM (inactive)
Ki (Insulin receptor): > 50.1 µM (inactive)
Ki [18]: > 79.4 µM (inactive)
Ki [19]: > 31.6 µM (inactive)
Ki [4]: 2.51 µM (active)
Ki [20]: 25.1 µM (active)
Ki [21]: > 79.4 µM (inactive)
Ki [22]: > 79.4 µM (inactive)
Ki [23]: > 79.4 µM (inactive)

SMILES: Cn1cc(Nc2ncc(Br)c(Nc3ccccc3Cl)n2)cn1
Ki [24]: 63.1 nM (active)
Ki [25]: 1 µM (active)

SMILES: CS(=O)(=O)Nc1cc2c(cc1Cl)NC(=O)Nc1cnc(C#N)c(n1)OCCCCCO2
Ki [26]: > 7.94 µM (inactive)
